The values that follow come from patent US20240216375A1, “USE OF S[…] AND/OR ALPHA 1-ADRENERGIC RECEPTOR INHIBITOR IN PREPARING MEDICINE FOR TREATING DRY EYES” (Eye Institute of Shandong First Medical University …, priority 2022, published 2024).

Holding throughout (format): in vivo
Experiment [1] concerns mice treated with scopolamine (dry eye model). The experiment in a line: Tear secretion (phenol red cotton thread) in scopolamine-induced dry eye model mice. Particulars: intraperitoneal injection 100 mg/kg once a day from 3rd day after modeling for 4 days, observed 5 and 7 days, vs normal saline.
Experiment [2] shares this test system. The experiment in a line: Corneal staining by fluorescein sodium in scopolamine-induced dry eye model mice. Particulars: intraperitoneal injection 100 mg/kg, 7th day of treatment. On the procedure: (§1) Female C57BL/6 mice were selected for the experiment and placed in a perforated cage with a constant fan flow and a humidity <20%. The modeled mice with dry eye were induced by subcutaneous injection of scopolamine (0.5 mg/0.2 ml, 3 times a day) for 7 consecutive days (refer to the following literature: Wu Y, Bu J, Yang Y, et al. Therapeutic effect of MK2 inhibitor on experimental murine dry eye. Invest Ophthalmol Vis Sci. 2017; 58:4898-4907), the mice not treated and fed under a normal condition were used as a control, and the experimental mice had no corneal defects and neovascularization or conjunctival damage.
Staining by fluorescein sodium was used to observe damage of a corneal epithelial barrier function, observation was performed with a slit lamp, and photographing was performed. The result was shown in FIG. 2 (corneal staining by fluorescein sodium 7 days after modeling of mice treated with scopolamine). Compared with the mice in the control group, the mice in the scopolamine group were positive in staining by fluorescein sodium in scopolamine 7 days after modeling.
After 7 days of the treatment, staining by sodium fluorescein was used to observe damage of a corneal epithelial barrier function. The lacrimal glands of the mice were taken for qPCR detection. […]

In another experiment the test system is mice with diabetes. The experiment in a line: Tear secretion in mice with diabetes (STZ type 1 diabetes model, diabetes-associated dry eye). Particulars: intraperitoneal injection 100 mg/kg once a day for 4 days, observed 5 and 7 days, vs normal saline. How it is done: A phenol red cotton thread was used to detect the tear production of mice. One end of the phenol red cotton thread was placed at an inner ⅓ of the conjunctival sac of the lower eyelid, after 20 s, the phenol red cotton thread was taken out, and the length of the cotton thread wetted with tears was measured. The result was shown in FIG. 1 (tear secretion after modeling of mice treated with scopolamine).
Male C57BL/6 mice were selected, a type 1 diabetes model was established by intraperitoneal injection of streptozotocin (STZ) (the establishment method refers to the prior art: Lingling, Yang, Guohu, Di, Xia, & Qi, et al. Substance p promotes diabetic corneal epithelial wound healing through molecular mechanisms mediated via the neurokinin-1 receptor. Diabetes. 2014; 63: 4262-4274.), and the mice with blood glucose value greater than 300 mg/dL were screened for experiments after 1 month. The mice not treated and fed under a normal condition were used as a control, and the experimental mice had no corneal defects and neovascularization or conjunctival damage. The result was shown in FIG. 11 (tear secretion and ocular surface inflammation after modeling of mice with diabetes, tear secretion (left) and ocular surface inflammation (right)). […]

The test system of experiment [3] is mice treated with scopolamine (dry eye model). The experiment in a line: Expression levels of inflammatory factors of the lacrimal gland by qPCR in scopolamine-induced dry eye model mice. As to conditions: intraperitoneal injection 100 mg/kg, 7th day of treatment. On the procedure:
as §1
After 7 days of modeling, the lacrimal glands and the corneas of the mice were taken to extract mRNA. Expression levels of inflammatory factors TNFα, TGFβ1, and IL-1β were detected by qPCR. The result was shown in FIG. 3 (expression levels of inflammatory factors of the lacrimal glands (left) and the corneas (right) 7 days after modeling of mice treated with scopolamine).
After 7 days of the treatment, staining by sodium fluorescein was used to observe damage of a corneal epithelial barrier function. The lacrimal glands of the mice were taken for qPCR detection.
On the 7th day of the treatment, staining by sodium fluorescein was used to observe damage of a corneal epithelial barrier function. The lacrimal glands of the mice were taken for qPCR detection.
A general note: Real-time PCR tracks product formation cycle by cycle.

Regarding `NCCc1cc(O)c(O)cc1O` [6-hydroxydopamine], the tear secretion result (in experiment [1]; in the experiment on mice with diabetes) was “significantly increase the tear secretion” throughout. Besides, the “staining of ocular surface by fluorescein sodium” value in experiment [2] is “reduce staining of an ocular surface by fluorescein sodium”. For the same compound, the “expression levels of inflammatory factors TNFα and TGFβ1 of the lacrimal gland” value in experiment [3] was “decrease expression levels of inflammatory factors TNFα and TGFβ1”.
